Key:
Assay in all cases: relative viability (nuclei count vs DMSO), 5 days (fraction); higher = more cells survive
RAF265 + Olaparib = compound: Cn1c(Nc2ccc(C(F)(F)F)cc2)nc2cc(Oc3ccnc(-c4ncc(C(F)(F)F)[nH]4)c3)ccc21 [RAF265] + O=C(c1cc(Cc2n[nH]c(=O)c3ccccc23)ccc1F)N1CCN(C(=O)C2CC2)CC1 [Olaparib] (partner 8 µM)
Method in brief: (§1)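 Medians of duplicate plates are given as relative viability. That measure is the nuclei count in treated wells divided by the count in vehicle wells. Counts were taken on 4× images of lung cancer cell lines in 1536-well plates, 5 days after pin-tool dosing the day after seeding with one drug alone or a fixed anchor-drug dose plus five library-drug doses (not always all listed) in √10 steps.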

IPA-3 + Trametinib = compound: C1=CC=C2C(=C1)C=CC(=C2SSC3=C(C=CC4=CC=CC=C43)O)O [IPA-3] + CC(=O)Nc1cccc(-n2c(=O)n(C3CC3)c(=O)c3c(Nc4ccc(I)cc4F)n(C)c(=O)c(C)c32)c1 [Trametinib] (partner 0.02 µM)
Method in brief: as §1

Doramapimod + Trametinib = compound: Cc1ccc(-n2nc(C(C)(C)C)cc2NC(=O)Nc2ccc(OCCN3CCOCC3)c3ccccc23)cc1 [Doramapimod] + CC(=O)Nc1cccc(-n2c(=O)n(C3CC3)c(=O)c3c(Nc4ccc(I)cc4F)n(C)c(=O)c(C)c32)c1 [Trametinib] (partner 0.02 µM)
Method in brief: as §1

RAF265 + AZD7762 = compound: Cn1c(Nc2ccc(C(F)(F)F)cc2)nc2cc(Oc3ccnc(-c4ncc(C(F)(F)F)[nH]4)c3)ccc21 [RAF265] + NC(=O)Nc1cc(-c2cccc(F)c2)sc1C(=O)N[C@H]1CCCNC1 [AZD7762] (partner 0.2 µM)
Method in brief: as §1

Row | Cell Line | relative viability (RAF265 + Olaparib; first compound 0.01 µM) | relative viability (RAF265 + Olaparib; first compound 0.03162 µM) | relative viability (RAF265 + Olaparib; first compound 0.1 µM) | relative viability (RAF265 + Olaparib; first compound 0.3162 µM) | relative viability (RAF265 + Olaparib; first compound 1 µM) | relative viability (IPA-3 + Trametinib; first compound 0.2 µM) | relative viability (IPA-3 + Trametinib; first compound 0.6325 µM) | relative viability (IPA-3 + Trametinib; first compound 2 µM) | relative viability (IPA-3 + Trametinib; first compound 6.325 µM) | relative viability (IPA-3 + Trametinib; first compound 20 µM) | relative viability (Doramapimod + Trametinib; first compound 0.02 µM) | relative viability (Doramapimod + Trametinib; first compound 0.06325 µM) | relative viability (Doramapimod + Trametinib; first compound 0.2 µM) | relative viability (Doramapimod + Trametinib; first compound 0.6325 µM) | relative viability (Doramapimod + Trametinib; first compound 2 µM) | relative viability (RAF265 + AZD7762; first compound 0.01 µM) | relative viability (RAF265 + AZD7762; first compound 0.03162 µM) | relative viability (RAF265 + AZD7762; first compound 0.1 µM) | relative viability (RAF265 + AZD7762; first compound 0.3162 µM) | relative viability (RAF265 + AZD7762; first compound 1 µM)
1 | NCI-H1437 | 0.644 | 0.611 | 0.653 | 0.619 | 0.561 | 0.712 | 0.611 | 0.483 | 0.468 | 0.546 | 0.477 | 0.486 | 0.423 | 0.423 | 0.486 | 1.08 | 1.13 | 1.2 | 1.15 | 1.1
2 | NCI-H1648 | 1.43 | 0.891 | 0.537 | 0.78 | 0.279 | 0.476 | 0.495 | 0.555 | 0.494 | 0.524 | 0.435 | 0.46 | 0.508 | 0.582 | 0.402 | 0.698 | 0.514 | 0.804 | 0.758 | 0.567
3 | NCI-H1651 | 0.187 | 0.17 | 0.194 | 0.185 | 0.167 | 0.945 | 0.798 | 0.883 | 0.904 | 0.971 | 0.811 | 0.865 | 0.823 | 0.792 | 0.825 | 0.508 | 0.497 | 0.401 | 0.406 | 0.365
4 | NCI-H1666 | 0.806 | 0.746 | 0.707 | 0.786 | 0.703 | 0.902 | 0.855 | 0.886 | 0.924 | 0.884 | 0.84 | 0.895 | 0.936 | 0.907 | 0.795 | 0.935 | 0.882 | 0.837 | 0.854 | 0.825
5 | NCI-H1734 | 0.627 | 0.574 | 0.575 | 0.511 | 0.344 | 0.661 | 0.628 | 0.707 | 0.618 | 0.72 | 0.599 | 0.611 | 0.599 | 0.587 | 0.514 | 0.545 | 0.516 | 0.437 | 0.325 | 0.217
6 | NCI-H1755 | 0.879 | 0.788 | 0.909 | 0.717 | 0.499 | 0.764 | 0.797 | 0.739 | 0.739 | 0.753 | 0.849 | 0.887 | 0.751 | 0.761 | 0.714 | 0.548 | 0.475 | 0.483 | 0.405 | 0.425
7 | NCI-H1792 | 0.474 | 0.291 | 0.279 | 0.262 | 0.0641 | 0.526 | 0.504 |  | 0.407 | 0.495 | 0.446 | 0.407 | 0.379 | 0.374 | 0.27 | 0.638 | 0.568 | 0.475 | 0.11 | 0.0984
8 | NCI-H1793 | 0.898 | 0.755 | 0.724 | 0.382 | 0.268 | 0.456 | 0.373 | 0.448 | 0.376 | 0.437 | 0.418 | 0.435 | 0.408 | 0.377 | 0.406 | 0.413 | 0.572 | 0.332 | 0.197 | 0.132
9 | NCI-H1915 | 0.256 | 0.248 | 0.235 | 0.224 | 0.136 | 0.301 | 0.271 | 0.286 | 0.295 | 0.318 | 0.303 | 0.313 | 0.311 | 0.311 | 0.277 | 0.649 | 0.655 | 0.663 | 0.602 | 0.41
10 | NCI-H1944 | 0.43 | 0.44 | 0.385 | 0.361 | 0.26 | 0.436 | 0.433 | 0.401 | 0.42 | 0.415 | 0.387 | 0.343 | 0.43 | 0.419 | 0.396 | 0.75 | 0.617 | 0.512 | 0.448 | 0.365
11 | NCI-H1975 | 0.707 | 0.552 | 0.522 | 0.308 | 0.305 | 0.328 | 0.325 | 0.331 | 0.424 | 0.323 | 0.337 | 0.307 | 0.348 | 0.4 | 0.331 | 0.694 | 0.667 | 0.635 | 0.484 | 0.406
12 | NCI-H1993 | 1.21 | 1.41 | 1.19 | 1.07 | 0.886 | 0.491 | 0.475 | 0.468 | 0.558 | 0.506 | 0.458 | 0.504 | 0.622 | 0.45 | 0.434 | 0.784 | 0.82 | 0.791 | 0.602 | 0.635
13 | NCI-H2085 | 0.954 | 0.723 | 0.841 | 0.854 | 0.76 | 0.625 | 0.602 | 0.637 | 0.577 | 0.714 | 0.496 | 0.494 | 0.502 | 0.471 | 0.494 | 1.06 | 0.879 | 1.05 | 1.1 | 0.857
14 | NCI-H2087 | 0.757 | 0.496 | 0.64 | 0.334 | 0.373 | 0.235 | 0.267 | 0.178 | 0.227 | 0.271 | 0.235 | 0.163 | 0.198 | 0.197 | 0.193 | 1.19 | 1.18 | 1.02 | 1.2 | 1.12
15 | NCI-H2126 | 0.942 | 0.907 | 0.901 | 0.818 | 0.724 | 0.569 | 0.56 | 0.521 | 0.501 | 0.6 | 0.551 | 0.546 | 0.571 | 0.637 | 0.524 | 1.04 | 0.962 | 0.968 | 0.935 | 0.848
16 | NCI-H2170 | 0.58 | 0.485 | 0.596 | 0.438 | 0.405 | 0.958 | 0.923 | 0.868 | 0.846 | 0.993 | 0.854 | 1.02 | 0.934 | 0.981 | 0.825 | 0.876 | 0.72 | 0.761 | 0.363 | 0.615
